Patent publication US9988445B2, “Method of treatment of pain by administration of a CCL17 specific antibody” (The University of Melbourne, priority 2013, dated 2018)
Entries after “also recorded” stand apart in the source; their conditions may differ.

Columns and labels:
[1] = tested on: mice; test: GM-CSF given intraplantarly, pain development (Incapacitance Tester); format: in vivo; settings: GM-CSF 20 ng i.pl., four hours, vs. saline
Experimental: Mice were treated with a monoclonal antibody (mAb) to CCL17 (300 μg) or with an isotype control mAb (300 μg) at the same time as being given GM-CSF and pain was measured at four hours later.
(§1) An Incapacitance Tester (Dual Weight Averager) is used to automatically and reproducibly assess the analgesic potency by measuring the weight distribution on the two hind paws.
(§2) Weight placed on each hind limb was measured over a 3 second period. 3 separate measurements taken per mouse for each time point then averaged. Results are expressed as injected limb/control limb×100. Thus a value of 100 means that equal weight is being placed on the right and the left limb. A value below 100 means less weight is being placed on the injected limb (left) compared with the control limb (right).

[2] = tested on: mice; test: CCL17 given intraplantarly, pain development (Incapacitance Tester); format: in vivo; settings: CCL17 50 ng i.pl., 6 hours, p<0.05 vs. saline
Experimental: as §1, §2
Pain is identified as a decrease in the ratio of weight distribution between the CCL17-injected and saline-injected paw where a percentage of less than 95 indicates pain development (see Example 1 above). Thus, CCL17 can induce pain.

## GM-CSF: proinflammatory cytokine GM-CSF
[1]
  pain development after i.pl. injection in the footpad: develop pain

B1: CCL17: chemokine (C-C motif)17, also known as thymus- and activation-regulated chemokine (protein, UniProt Q92583 24-94, looked up)
C-C motif chemokine 17: ARGTNVGRECCLEYFKGAIPLRKLKTWYQTSEDCSRDAIVFVTVQGRAICSDPNNKRVKNAVKYLQSLERS
[2]
  pain development (ratio of weight distribution between CCL17-injected and saline-injected paw; less than 95 indicates pain): develop pain; also recorded: induces pain
